These results are taken from ChEMBL document CHEMBL1131389, “Unusual synthesis of new glycine antagonists via sequential aldol condensation-lactonization-elimination reaction” (Bioorg Med Chem Lett, 1998).

The target in the assay is Glutamate receptor ionotropic, NMDA 1 (Rattus norvegicus) (UniProt P35439). As to the kind of experiment: In vitro affinity of compound for the glycinergic site associated with NMDA receptor was assessed by inhibition of the binding of [3H]glycine.

With `O=C(O)c1[nH]c2cc(Cl)cc(Cl)c2c1/C=C1\CCCN(c2ccccc2)C1=O`, the pKi (as a rule, the Ki on a negative log10 scale, so that one unit is a factor of ten) amounted to 7.3.
In turn, `O=C(O)c1[nH]c2cc(Cl)cc(Cl)c2c1/C=C1\CCN(c2ccccc2)C1=O` returned a pKi of 7.5.
